Measurements published in article PMC10458698, “Characterization of the interferences of systemic azole antifungal drugs with adrenal steroid biosynthesis using H295R cells and enzyme activity assays” (Current Research in Toxicology, 2023).
Like-named read-outs stand apart in the source and are kept apart here.

How the values were obtained:
[1] = test system: H295R cells; test: Steroidogenesis assay in forskolin-stimulated H295R cells, UHPLC-MS/MS; type: cell-based, human; settings: 48 h
Protocol: Briefly, 200,000 cells/mL between passages 5 and 10 were seeded in a 24-well plate. After 24 h, the medium was replaced by fresh medium containing reference or test compounds. […] As a time zero control, complete medium was incubated without cells. After 48 h of incubation, the cell culture supernatant was collected and stored at −20 °C until steroid quantification was performed by ultra-high liquid chromatography tandem mass spectrometry (UHPLC-MS/MS). All experiments were performed three times independently in technical duplicates.
Using water, the sample volume was adapted to 1 mL. Samples were extracted using Oasis HLB 3 cc SPE cartridge (30 mg, 30 μm particle size, Waters, Massachusetts, USA). Columns were preconditioned with 1 mL ethyl acetate and water prior to application of samples. After sample loading, columns were washed three times with 1 mL methanol (10% v/v) and water before samples were eluted applying 0.75 mL ethyl acetate twice. Eluates were evaporated to dryness and reconstituted in 50 µL methanol. Samples were applied to a reverse phase column (Waters Acquity UPLC BEH C18, 1.7 μm, 2.1 mm × 150 mm). […] Applied mobile phases consisted of water, acetonitrile and formic acid (95/5/0.1; v/v/v and 5/95/0.1; v/v/v). For data analysis, Hunter software version B.09.00 (Agilent Technologies) was used. Lower limit of detection (LOD), lower limit of quantification (LLOQ), and upper limit of quantification (ULOQ) are shown in Table 1.

[2] = biological target: T1, CYP17A1 17,20-lyase (Homo sapiens, UniProt P05093); test: CYP17A1 17,20-lyase activity assay, microsomes of transfected COS-1 cells; type: biochemical; settings: for IC50: 17α-hydroxypregnenolone 500 nM, 1 h; for lower inhibitory potency against 17,20-lyase than posaconazole: relative to posaconazole
T1 construct: expressed in transfected cells; host or cells: COS-1 cells, transient transfection, microsomal fraction
T1 sequence (P05093 1-508): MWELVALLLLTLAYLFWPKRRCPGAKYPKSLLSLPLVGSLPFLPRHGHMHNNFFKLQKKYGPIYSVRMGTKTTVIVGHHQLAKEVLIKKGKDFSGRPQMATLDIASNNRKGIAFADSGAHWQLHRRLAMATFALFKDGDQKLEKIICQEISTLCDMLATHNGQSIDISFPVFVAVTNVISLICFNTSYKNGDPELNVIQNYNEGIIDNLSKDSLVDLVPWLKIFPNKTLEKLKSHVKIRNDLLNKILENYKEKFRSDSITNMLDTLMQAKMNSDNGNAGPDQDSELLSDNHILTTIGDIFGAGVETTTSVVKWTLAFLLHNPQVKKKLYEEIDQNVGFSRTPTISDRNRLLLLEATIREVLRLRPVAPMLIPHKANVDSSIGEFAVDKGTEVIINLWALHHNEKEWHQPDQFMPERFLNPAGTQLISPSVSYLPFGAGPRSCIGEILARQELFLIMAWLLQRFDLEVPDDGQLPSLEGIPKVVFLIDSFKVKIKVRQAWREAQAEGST
Protocol: (§1) Microsomes were prepared from COS-1 cells transiently transfected with plasmids for either CYP17A1 and POR for CYP17A1-hydroxylase assay (human CYP17A1 was available in our own plasmid collection after cloning into pcDNA3, POR was ordered from Genescript, Piscataway, USA, clone ID OHu25584C), CYP17A1, POR and cytochrome b5 for CYP17A1 17,20-lyase assay (cytochrome b5 was from Genescript, clone ID OHu09495D), POR and CYP21A2 (Genescript, CYP21A2 clone ID OHu18602D), or 3β-HSD2 (Genescript, clone ID OHu14034D). Transfection was performed using PEI and equal amounts of required plasmids with a total DNA amount of 8 µg per transfection of 3,000,000 cells. After overnight incubation, cells were washed with prewarmed PBS before adding ice-cold PBS. Cells were collected and centrifuged at 600 × g for 4 min at 4 °C, washed with ice cold PBS and centrifuged again. The pellet was resuspended in a resuspension buffer (20 mM Tris, pH 7.5, 50 mM KCl, 2 mM MgCl2, 0.25 M sucrose). Cells were disrupted with 30 S by a glass potter (2 cm^3) as described above. The homogenate was centrifuged for 20 min at 12,000 × g and 4 °C. Microsomes were pelleted by ultracentrifugation at 100,000 × g for 1 h at 4 °C. The pellet was resuspended in reaction buffer and the protein concentration determined using the Pierce Protein BCA kit as described above.
Microsomes, 250 µg/mL, expressing CYP17A1, POR and cytochrome b5 were incubated in reaction buffer for 10 min with 1 mM NADPH and the azole antifungals. The reaction was started by adding 500 nM 17α-hydroxypregnenolone in a total reaction volume of 50 µL. After 1 h of incubation at 37 °C, the reaction was stopped adding 50 µL methanol. Samples were evaporated to dryness, reconstituted in 6 µL methanol, diluted 1:25 in water and the DHEA concentration was quantified using an ELISA kit (DEH3344, Demeditec, Kiel, Germany). Absorbance was measured using a BioTek Citation5 imaging reader.

[3] = biological target: T2, CYP17A1 17α-hydroxylase (Homo sapiens, UniProt P05093); test: CYP17A1 17α-hydroxylase activity assay, microsomes of transfected COS-1 cells; type: biochemical; settings: cell-free; for inhibition of CYP17A1 17α-hydroxylase: in words; for IC50: progesterone 500 nM, 10 min, read-out: IC50 CYP17A1 17α-hydroxylase mean
T2 construct: expressed in transfected cells; host or cells: COS-1 cells, transient transfection, microsomal fraction
T2 sequence (P05093 1-508): T1 sequence (P05093 1-508)
Protocol: as §1
Microsomal protein (250 µg/mL) was preincubated with 1 mM NADPH and the compound of interest in reaction buffer for 10 min. The reaction was started by adding progesterone spiked with a radioactive tracer (final activity 0.025 mCi) to a final concentration of 500 nM. After 10 min of incubation at 37 °C the reaction was stopped by adding enzyme substrate and product at a final concentration of 1 mM in methanol, followed by shock-freezing in liquid nitrogen. Steroids were separated by thin layer chromatography on SIL G-25 UV254 TLC plates (Macherey-Nagel, Düren, Germany) using chloroform and ethyl acetate (1:4; v:v). Bands were excised and radiolabeled steroids analyzed by scintillation counting using […] Plus cocktail (Zinsser Analytic, Frankfurt am Main, Germany) and a β-counter (Packard, Connecticut, USA). Relative conversion was calculated based on total counts.

[4] = test system: CYP11B1; parameters: method as in Beck et al., 2020a; settings: ref Beck et al., 2020a; cited from earlier work
[5] = parameters: method as in earlier work; settings: ref Zhang et al., 2018, Märtson et al., 2019, Vena et al., 2020, Risum et al., 2021, cited from earlier work
[6] = 30 nM, 10 μM forskolin, relative to forskolin control

Row | SMILES | concentrations that block overall steroidogenesis ([1]; forskolin-stimulated) [µM] | effect on the steroid profile ([1]; forskolin-stimulated, in words) | product/substrate ratios corticosterone/11-DOC and cortisol/cortexolone (apparent CYP11B1 activity) ([1]; forskolin-stimulated, in words) | IC50 ([2]; cell-free) [µM] | lower inhibitory potency against 17,20-lyase than posaconazole [2] [times] | inhibition of CYP17A1 17α-hydroxylase [3] | IC50 [3] [µM] | IC50 [4] [µM] | serum trough concentration ([5]; molar value in brackets) [µM] | serum trough concentration [5] [µg/mL] | effect on the steroid profile ([1]; forskolin-stimulated, in words, listed as Itraconazole) | lower level of the CYP11B2 product aldosterone [1, 6] [%] | lower levels of the CYP11B1 products cortisol and corticosterone [1, 6] | inhibition of cortisol, corticosterone and aldosterone production ([1]; 300 nM and higher concentrations) | product/substrate ratio 17α-hydroxyprogesterone/progesterone (apparent CYP17A1 17α-hydroxylase activity) ([1]; forskolin-stimulated, in words) | inhibition of CYP17A1 17,20-lyase ([2]; cell-free, in words) | preference for 17,20-lyase over the 17α-hydroxylase activity ([2]; ratio of IC50 values)
1 | C[C@@H](c1nc(-c2ccc(C#N)cc2)cs1)[C@](O)(Cn1cncn1)c1cc(F)ccc1F [isavuconazole] | ≥ 1 | concentration-dependent decrease in all measured steroids | did not indicate an inhibition of CYP11B1 and CYP11B2 | 5.71 | 20 | very weakly | > 10 | 3 | ~1 | 4 | – | – | – | – | – | – | –
2 | CCC(C)n1ncn(-c2ccc(N3CCN(c4ccc(OCC5COC(Cn6cncn6)(c6ccc(Cl)cc6Cl)O5)cc4)CC3)cc2)c1=O (centres unmarked) [itraconazole] | ≥ 1 | lowered the levels of all steroids in a concentration-dependent manner | less potently | 5.76 | 20 | – | > 10 | 0.44 | – | 0.5 to 1 | inhibited the production of corticosterone and aldosterone and, to a lesser extent, of cortisol in a concentration-dependent manner | – | – | – | – | – | –
3 | CC[C@@H]([C@H](C)O)n1ncn(-c2ccc(N3CCN(c4ccc(OC[C@@H]5CO[C@@](Cn6cncn6)(c6ccc(F)cc6F)C5)cc4)CC3)cc2)c1=O [posaconazole, Posaconazole] | – | did not affect progesterone and 11-DOC levels | decreased with increasing concentrations | 0.28 | – | moderately inhibited | 1.12 | 0.06 | – | > 0.7 | – | ~50 | about 40% | complete inhibition | indicated 17α-hydroxylase inhibition | potently inhibited | four-fold preference
